Earlier results on one compound are cited in EP2221049A2, “SOLID PHARMACEUTICAL COMPOSITION OF DED ANOSINE” (Blanver Farmoquimica, LTDA, priority 2007, dated 2009).

Some results are limits rather than exact numbers.

The conditions of this data set: pH below 3, 37°C.

As for `OC[C@@H]1CC[C@H](n2cnc3c(O)ncnc32)O1` [didanosine, 2',3'-dideoxyinosine], the “time period in which 10% of didanosine is decomposed to hypoxanthine” value is under 2 min.
